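Cultured in 96-well plates, cells were exposed to test compound for 48 hours across five concentrations. Here, GI50 denotes the concentration required for 50% inhibition of growth. TGI: concentration producing complete growth inhibition.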
What was measured:
Experiment in all cases: NCI tumour cell line growth inhibition, 48 h
CAKI-1 renal = test system: CAKI-1 renal
K-562 leukemia = test system: K-562 leukemia
U251 CNS = test system: U251 CNS
SK-OV-3 ovarian = test system: SK-OV-3 ovarian
SF-268 CNS = test system: SF-268 CNS
M14 melanoma = test system: M14 melanoma
EKVX NSCLC = test system: EKVX NSCLC
SNB-75 CNS = test system: SNB-75 CNS
SF-295 CNS = test system: SF-295 CNS
BT-549 breast = test system: BT-549 breast
UO-31 renal = test system: UO-31 renal
CCRF-CEM leukemia = test system: CCRF-CEM leukemia
NCI-H226 lung = test system: NCI-H226 lung
SK-MEL-2 melanoma = test system: SK-MEL-2 melanoma
SN12C renal = test system: SN12C renal
SW-620 colon = test system: SW-620 colon
LOX IMVI melanoma = test system: LOX IMVI melanoma
SK-MEL-5 melanoma = test system: SK-MEL-5 melanoma
ACHN renal = test system: ACHN renal
MDA-MB-231 breast = test system: MDA-MB-231 breast
NCI-H23 lung = test system: NCI-H23 lung
MDA-MB-435 = test system: MDA-MB-435
UACC-257 melanoma = test system: UACC-257 melanoma
OVCAR-4 ovarian = test system: OVCAR-4 ovarian
TK-10 renal = test system: TK-10 renal
IGROV1 ovarian = test system: IGROV1 ovarian
T-47D breast = test system: T-47D breast
SR leukemia = test system: SR leukemia
HT29 colon = test system: HT29 colon
SK-MEL-28 melanoma = test system: SK-MEL-28 melanoma
HCT-15 colon = test system: HCT-15 colon
MDA-MB-468 breast = test system: MDA-MB-468 breast
NCI-H460 lung = test system: NCI-H460 lung
SF-539 CNS = test system: SF-539 CNS
COLO 205 colon = test system: COLO 205 colon
PC-3 prostate = test system: PC-3 prostate
HCC-2998 colon = test system: HCC-2998 colon
OVCAR-8 ovarian = test system: OVCAR-8 ovarian
NCI-H522 lung = test system: NCI-H522 lung
A549 NSCLC = test system: A549 NSCLC
HS 578T breast = test system: HS 578T breast
MALME-3M melanoma = test system: MALME-3M melanoma
RPMI-8226 leukemia = test system: RPMI-8226 leukemia
786-0 renal = test system: 786-0 renal
OVCAR-3 ovarian = test system: OVCAR-3 ovarian
HOP-92 NSCLC = test system: HOP-92 NSCLC
HL-60(TB) leukemia = test system: HL-60(TB) leukemia
KM12 colon = test system: KM12 colon
A498 renal = test system: A498 renal
OVCAR-5 ovarian = test system: OVCAR-5 ovarian
UACC-62 melanoma = test system: UACC-62 melanoma
RXF 393 renal = test system: RXF 393 renal
MCF7 breast = test system: MCF7 breast
HOP-62 NSCLC = test system: HOP-62 NSCLC
SNB-19 CNS = test system: SNB-19 CNS
DU-145 prostate = test system: DU-145 prostate
HCT-116 colon = test system: HCT-116 colon

For Cn1nc(C(F)(F)F)cc1-c1cc(Cl)c(COc2ccc(Cl)cc2)c(-c2ccc(Cl)c(C(F)(F)F)c2)c1O, which GI50 (CAKI-1 renal) is on record?
The GI50 was 2.17 µM.

And the TGI (CAKI-1 renal)?
Its TGI is 7.56 µM.

And the GI50 (K-562 leukemia)?
The GI50 was 0.509 µM.

What about the TGI (K-562 leukemia) of the same compound?
The TGI was over 100 µM.

What about the GI50 (U251 CNS) of the same compound?
The GI50 was 2.42 µM.

And the TGI (U251 CNS)?
Its TGI is 14.3 µM.

And the GI50 (SK-OV-3 ovarian)?
The GI50 was 3.02 µM.

What about the TGI (SK-OV-3 ovarian) of the same compound?
Its TGI is 11 µM.

And the GI50 (SF-268 CNS)?
Its GI50 is 2.33 µM.

And the TGI (SF-268 CNS)?
Its TGI is 13.1 µM.

What about the GI50 (M14 melanoma) of the same compound?
Its GI50 is 2.74 µM.

What about the TGI (M14 melanoma) of the same compound?
The TGI was 8.16 µM.

What about the GI50 (EKVX NSCLC) of the same compound?
Its GI50 is 2.51 µM.

And the TGI (EKVX NSCLC)?
Its TGI is 10.4 µM.

What about the GI50 (SNB-75 CNS) of the same compound?
Its GI50 is 2 µM.

What about the TGI (SNB-75 CNS) of the same compound?
The TGI was 8.07 µM.

And the GI50 (SF-295 CNS)?
Its GI50 is 1.88 µM.

What about the TGI (SF-295 CNS) of the same compound?
Its TGI is 4.12 µM.

What about the GI50 (BT-549 breast) of the same compound?
Its GI50 is 1.85 µM.

What about the TGI (BT-549 breast) of the same compound?
Its TGI is 7.48 µM.

And the GI50 (UO-31 renal)?
The GI50 was 2.57 µM.

And the TGI (UO-31 renal)?
Its TGI is 8.6 µM.

And the GI50 (CCRF-CEM leukemia)?
The GI50 was 1.75 µM.

And the TGI (CCRF-CEM leukemia)?
Its TGI is 10.8 µM.

What about the GI50 (NCI-H226 lung) of the same compound?
The GI50 was 2.72 µM.

What about the TGI (NCI-H226 lung) of the same compound?
The TGI was 9.52 µM.

What about the GI50 (SK-MEL-2 melanoma) of the same compound?
The GI50 was 2.09 µM.

What about the TGI (SK-MEL-2 melanoma) of the same compound?
Its TGI is 5.3 µM.

And the GI50 (SN12C renal)?
The GI50 was 1.26 µM.

And the TGI (SN12C renal)?
Its TGI is 7.7 µM.

And the GI50 (SW-620 colon)?
The GI50 was 3.13 µM.

What about the TGI (SW-620 colon) of the same compound?
The TGI was 12.1 µM.

And the GI50 (LOX IMVI melanoma)?
Its GI50 is 3.11 µM.

And the TGI (LOX IMVI melanoma)?
Its TGI is 10.6 µM.

And the GI50 (SK-MEL-5 melanoma)?
Its GI50 is 1.18 µM.

And the TGI (SK-MEL-5 melanoma)?
The TGI was 2.71 µM.

What about the GI50 (ACHN renal) of the same compound?
Its GI50 is 2.23 µM.

What about the TGI (ACHN renal) of the same compound?
Its TGI is 9.21 µM.

What about the GI50 (MDA-MB-231 breast) of the same compound?
The GI50 was 1.88 µM.

What about the TGI (MDA-MB-231 breast) of the same compound?
Its TGI is 5.2 µM.

What about the GI50 (NCI-H23 lung) of the same compound?
Its GI50 is 1.45 µM.

And the TGI (NCI-H23 lung)?
The TGI was 4.77 µM.

What about the GI50 (MDA-MB-435) of the same compound?
The GI50 was 3.02 µM.

And the TGI (MDA-MB-435)?
The TGI was 10.3 µM.

What about the GI50 (UACC-257 melanoma) of the same compound?
The GI50 was 2.67 µM.

What about the TGI (UACC-257 melanoma) of the same compound?
Its TGI is 10.5 µM.

And the GI50 (OVCAR-4 ovarian)?
The GI50 was 3.11 µM.

What about the TGI (OVCAR-4 ovarian) of the same compound?
The TGI was 13.5 µM.

And the GI50 (TK-10 renal)?
The GI50 was 3.3 µM.

And the TGI (TK-10 renal)?
The TGI was 15.6 µM.

And the GI50 (IGROV1 ovarian)?
Its GI50 is 2.92 µM.

What about the TGI (IGROV1 ovarian) of the same compound?
The TGI was 14.3 µM.

And the GI50 (T-47D breast)?
Its GI50 is 0.724 µM.

What about the TGI (T-47D breast) of the same compound?
The TGI was 8.7 µM.

What about the GI50 (SR leukemia) of the same compound?
The GI50 was 2.66 µM.

And the TGI (SR leukemia)?
The TGI was over 100 µM.

What about the GI50 (HT29 colon) of the same compound?
The GI50 was 3.36 µM.

And the TGI (HT29 colon)?
The TGI was 14.6 µM.

What about the GI50 (SK-MEL-28 melanoma) of the same compound?
Its GI50 is 2.88 µM.

And the TGI (SK-MEL-28 melanoma)?
Its TGI is 11.7 µM.

And the GI50 (HCT-15 colon)?
Its GI50 is 1.28 µM.

And the TGI (HCT-15 colon)?
The TGI was 7.14 µM.

And the GI50 (MDA-MB-468 breast)?
Its GI50 is 1.95 µM.

And the TGI (MDA-MB-468 breast)?
Its TGI is 8.03 µM.

And the GI50 (NCI-H460 lung)?
Its GI50 is 1.27 µM.

And the TGI (NCI-H460 lung)?
Its TGI is 7.3 µM.

And the GI50 (SF-539 CNS)?
Its GI50 is 2.06 µM.

And the TGI (SF-539 CNS)?
The TGI was 5.69 µM.

And the GI50 (COLO 205 colon)?
Its GI50 is 1.38 µM.

And the TGI (COLO 205 colon)?
Its TGI is 2.75 µM.

What about the GI50 (PC-3 prostate) of the same compound?
The GI50 was 1.57 µM.

What about the TGI (PC-3 prostate) of the same compound?
The TGI was 10.5 µM.

And the GI50 (HCC-2998 colon)?
Its GI50 is 1.68 µM.

And the TGI (HCC-2998 colon)?
The TGI was 10.5 µM.

And the GI50 (OVCAR-8 ovarian)?
The GI50 was 3.09 µM.

And the TGI (OVCAR-8 ovarian)?
Its TGI is 14.5 µM.

What about the GI50 (NCI-H522 lung) of the same compound?
The GI50 was 1.79 µM.

What about the TGI (NCI-H522 lung) of the same compound?
Its TGI is 13.4 µM.

And the GI50 (A549 NSCLC)?
Its GI50 is 3.36 µM.

What about the TGI (A549 NSCLC) of the same compound?
Its TGI is 15.5 µM.

And the GI50 (HS 578T breast)?
Its GI50 is 1.82 µM.

What about the TGI (HS 578T breast) of the same compound?
Its TGI is 6.58 µM.

What about the GI50 (MALME-3M melanoma) of the same compound?
The GI50 was 1.96 µM.

And the TGI (MALME-3M melanoma)?
The TGI was 5.16 µM.

And the GI50 (RPMI-8226 leukemia)?
Its GI50 is 1.06 µM.

And the TGI (RPMI-8226 leukemia)?
Its TGI is 5.4 µM.

What about the GI50 (786-0 renal) of the same compound?
The GI50 was 2.62 µM.

What about the TGI (786-0 renal) of the same compound?
The TGI was 7.97 µM.

And the GI50 (OVCAR-3 ovarian)?
The GI50 was 2.26 µM.

And the TGI (OVCAR-3 ovarian)?
The TGI was 12.6 µM.

And the GI50 (HOP-92 NSCLC)?
Its GI50 is 1.61 µM.

What about the TGI (HOP-92 NSCLC) of the same compound?
The TGI was 4.38 µM.

And the GI50 (HL-60(TB) leukemia)?
The GI50 was 2.18 µM.

What about the TGI (HL-60(TB) leukemia) of the same compound?
The TGI was 5.69 µM.

What about the GI50 (KM12 colon) of the same compound?
Its GI50 is 2.85 µM.

What about the TGI (KM12 colon) of the same compound?
Its TGI is 10.8 µM.

And the GI50 (A498 renal)?
Its GI50 is 2.53 µM.

And the TGI (A498 renal)?
Its TGI is 7.3 µM.

What about the GI50 (OVCAR-5 ovarian) of the same compound?
Its GI50 is 3.83 µM.

What about the TGI (OVCAR-5 ovarian) of the same compound?
Its TGI is 13.5 µM.

And the GI50 (UACC-62 melanoma)?
The GI50 was 1.45 µM.

What about the TGI (UACC-62 melanoma) of the same compound?
Its TGI is 4.88 µM.

What about the GI50 (RXF 393 renal) of the same compound?
Its GI50 is 1.64 µM.

What about the TGI (RXF 393 renal) of the same compound?
Its TGI is 5.54 µM.

And the GI50 (MCF7 breast)?
The GI50 was 1.26 µM.

And the TGI (MCF7 breast)?
The TGI was 10 µM.

What about the GI50 (HOP-62 NSCLC) of the same compound?
The GI50 was 3.26 µM.

And the TGI (HOP-62 NSCLC)?
Its TGI is 10.8 µM.

And the GI50 (SNB-19 CNS)?
Its GI50 is 2.25 µM.

What about the TGI (SNB-19 CNS) of the same compound?
The TGI was 13.1 µM.

And the GI50 (DU-145 prostate)?
The GI50 was 3.08 µM.

And the TGI (DU-145 prostate)?
Its TGI is 14.1 µM.

And the GI50 (HCT-116 colon)?
Its GI50 is 1.71 µM.

What about the TGI (HCT-116 colon) of the same compound?
Its TGI is 10.5 µM.
